Molecular target: T1, topoisomerase I (Homo sapiens, UniProt P11387)
T1 sequence (P11387 1-765): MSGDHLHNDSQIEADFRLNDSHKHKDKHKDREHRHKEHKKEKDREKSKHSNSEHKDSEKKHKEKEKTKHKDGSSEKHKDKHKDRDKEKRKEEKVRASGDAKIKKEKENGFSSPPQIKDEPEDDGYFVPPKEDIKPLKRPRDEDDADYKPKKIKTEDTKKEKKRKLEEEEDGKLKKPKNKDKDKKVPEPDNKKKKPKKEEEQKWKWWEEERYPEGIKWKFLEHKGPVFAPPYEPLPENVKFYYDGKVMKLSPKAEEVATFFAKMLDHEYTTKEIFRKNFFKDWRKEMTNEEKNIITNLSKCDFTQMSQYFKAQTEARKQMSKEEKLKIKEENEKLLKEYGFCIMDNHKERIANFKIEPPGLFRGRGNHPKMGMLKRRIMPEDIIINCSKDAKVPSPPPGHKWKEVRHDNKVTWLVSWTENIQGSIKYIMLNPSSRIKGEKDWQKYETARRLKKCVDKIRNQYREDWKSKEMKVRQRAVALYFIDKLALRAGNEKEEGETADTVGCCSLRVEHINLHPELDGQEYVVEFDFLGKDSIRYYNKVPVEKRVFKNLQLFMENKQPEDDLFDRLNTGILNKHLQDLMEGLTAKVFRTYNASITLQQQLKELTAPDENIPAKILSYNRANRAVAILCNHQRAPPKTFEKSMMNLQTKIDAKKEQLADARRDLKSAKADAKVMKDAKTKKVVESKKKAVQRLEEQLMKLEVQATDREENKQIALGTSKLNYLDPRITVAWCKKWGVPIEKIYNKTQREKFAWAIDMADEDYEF
Test: Topoisomerase I-inhibiting activity
Type: biochemical
Conditions: concentration of a compound needed to inhibit topoisomerase I activity by 50%
Description: Topoisomerase I-inhibiting activity was assayed by the method described in Yoshinari, T et al., Cancer Research, vol. 55, page 1310 (1995).
In the table, EC50 means the concentration of a compound needed to inhibit topoisomerase I activity by 50%.

Row | SMILES | EC50 [µM]
1 | O=C1OC(=O)c2c1c1c3ccc(O)cc3[nH]c1c1c2c2ccc(O)cc2n1C1OC(CO)C(O)C(O)C1O (stereo not shown) [Compound [c]] | 0.18
2 | O=C1c2c(c3c4ccc(OCc5ccccc5)cc4n(C4OC(COCc5ccccc5)C(OCc5ccccc5)C(OCc5ccccc5)C4OCc4ccccc4)c3c3[nH]c4cc(OCc5ccccc5)ccc4c23)C(=O)N1NC(CO)CO [Example 2, 12,13-dihydro-2,10-dibenzyloxy-6-N-(1-hydroxymethyl-2-hydroxyethylamino)-13-(β-D-2,3,4,6-tetra-O-benzylglucopyranosyl)-5H-indolo[2.3-a]pyrrolo[3,4-c]-carbazole-5,7(6H)-dione] | > 1000
3 | O=C1OC(=O)c2c1c1c3ccc(OCc4ccccc4)cc3[nH]c1c1c2c2ccc(OCc3ccccc3)cc2n1C1OC(COCc2ccccc2)C(OCc2ccccc2)C(OCc2ccccc2)C1OCc1ccccc1 [Example 1, 12,13-dihydro-2,10-dibenzyloxy-13-(β-D-2,3,4,6-tetra-O-benzylglucopyranosyl)-5H-indolo[2,3-a]carbazole-5,6-dicarboxylic anhydride] | > 1000
4 | CN1C(=O)c2c(c3c4ccc(O)cc4n([C@@H]4O[C@H](CO)[C@@H](O)[C@H](O)[C@H]4O)c3c3[nH]c4cc(O)ccc4c23)C1=O [Compound [b]] | 0.68
